Patent US20050124664A1, “Urea thiadiazole inhibitors of plasminogen activator inhibior-1” (priority 2003, published 2005)

SMILES | melting point
COC(=O)c1cccc(NC(=O)Nc2nnc(-c3cc(Cl)cc(Cl)c3O)s2)c1 [Example 3, 3-{3-[5-(3,5-Dichloro-2-hydroxy-phenyl)-[1,3,4]thiadiazol-2-yl]-ureido}-benzoic Acid Methyl Ester] | 305 °C
COC(=O)c1ccc(NC(=O)Nc2nnc(-c3cc(Cl)cc(Cl)c3O)s2)cc1 [Example 4, 4-{3-[5-(3,5-Dichloro-2-hydroxy-phenyl)-[1,3,4]thiadiazol-2-yl]-ureido}-benzoic Acid Methyl Ester] | 330 °C
